{"source": "patent US10509041B2", "about": "“Glucose derivative, and cell imaging method and imaging agent using said derivative” (HIROSAKI UNIVERSITY, priority 2014, dated 2019)", "key": {"[1]": {"system": "MIN6 cell masses (spheroids)", "experiment": "Fluorescent imaging of tumor cell masses (spheroids) of MIN6 cells with mixed fluorescent glucose derivative solutions", "format": "cell-based, mouse", "details": "3 minutes, 6 minutes after start of washout", "procedure": "A fluorescent mixed solution containing 100 μM CDG, 100 μM 2-NBDLG, and 20 μM 2-TRLG (CDG/2-NBDLG/2-TRLG) was administered at 37° C. for 3 minutes to MIN6 cell masses (spheroids) at culture day 17, and fluorescent imaging was conducted.\n10 μL of a culture solution containing MIN6 cells suspended at a density of 6×10^4 cells/mL was added dropwise onto each glass cover slip, and then, the glass cover slip was left standing for 40 minutes in an incubator for fixation to the glass surface. The cells were cultured by the addition of 3 mL of a culture solution (600 cells/slip). Spheroids were formed by continuing the culture for 15 to 17 days. Half the amount of the culture solution was replaced with a fresh one once every three days.\nThe MIN6 cells used were cells kindly provided by professor Junichi Miyazaki (Osaka University) and subcultured 6 to 10 times. Half the amount of the culture solution was replaced with a fresh one once every two days.\n13.4 g of high glucose-containing Dulbecco's modified Eagle's Medium (DMEM-HG) (Sigma-Aldrich, #D5648), 3.4 g of NaHCO3, and 5 μL of 2-mercaptoethanol were dissolved in 1 L of ultrapure water, and the pH of the solution was adjusted to 7.30 to 7.35 in a CO2 incubator of 37° C. The culture solution was supplemented with fetal bovine serum (Hyclone, Cat# SH30070.03) at a final concentration of 10% and penicillin-streptomycin at a final concentration of 0.5%.\nThe whole amount of the 0.5 mg CDG vial was recovered using 0.73 mL in total of 10% DMSO and dissolved by addition to 7.0 ml of a KRB solution for image acquisition according to the method described in Non Patent Literature 2.\nThe whole amount of one 0.5 mg 2-NBDLG vial was dissolved in 7.3 mL of a KRB solution for image acquisition.\nThe CDG solution and the 2-NBDLG solution were mixed at a ratio of 1:1. The whole amount of the 0.2 mg 2-TRLG vial was recovered using 130 μL in total of DMSO and mixed with 13 ml of the CDG+2-NBDLG mixed solution according to the method described in Non Patent Literature 2 (final concentration: 100 μM CDG+100 μM 2-NBDLG+20 μM 2-TRLG mixed solution). […]\nThe glass cover slip with the cultured MIN6 cells was transferred into the KRB solution for image acquisition in a perfusion chamber loaded on a stage of a fluorescence microscope, followed by measurement. […]\nThe KRB solution for image acquisition was warmed in advance in an aluminum syringe heater and supplied to the perfusion chamber through hydrostatic pressure. […] Immediately before being introduced to the perfusion chamber, the solution was rewarmed via an inline heater so that the actually measured temperature of the perfusate in an observation region in the chamber was adjusted to 36±1° C. […]"}, "[2]": {"system": "mouse insulinoma cells (MIN6)", "experiment": "Influence of excessive D-glucose or L-glucose on increase in fluorescence intensity caused by CDG or CLG in MIN6 cells", "format": "cell-based", "details": "100 μM, 37° C. 5 min, MIN6 culture day 13, versus non-excessive glucose control", "procedure": "Whether or not increase in fluorescence intensity caused by the administration of the blue fluorescent D-glucose derivative CDG (100 μM) to the mouse insulinoma cells MIN6 at culture day 13 was inhibited by a large excess of D-glucose or L-glucose was examined. The blue fluorescent L-glucose derivative CLG was similarly analyzed as a control. However, the following conditions were changed.\nAlthough the usual KRB solution contains 129 mM NaCl and 5.6 mM D-glucose, the osmotic pressure of a control solution (non-excessive glucose administration group solution) for this experiment was adjusted to 270 mOsm by substituting a portion of NaCl with choline-Cl, in order to equalize charge and osmotic pressure between the control solution and a KRB solution for excessive glucose administration. Also, the KRB solution for excessive glucose administration was allowed to contain NaCl and glucose according to the composition given below. In this respect, choline-Cl was added thereto in order to equalize osmotic pressure between this solution and the control solution (non-excessive glucose administration group solution).\n100 mM NaCl and 5.6 mM D-glucose (non-excessive glucose administration group solution)\n100 mM NaCl and 50 mM D-glucose (50 mM excessive D-glucose administration group solution)\n100 mM NaCl, 50 mM L-glucose, and 5.6 mM D-glucose (50 mM excessive L-glucose administration group solution)\nThese dedicated KRB solutions were also used as a solution for preparing CDG and CLG solutions in this Example.\nCDG and CLG were placed on different plates for the experiment. A CDG solution (or a CLG solution) prepared using each dedicated KRB solution was administered thereto using an 8-channel pipette (37° C., 5 min). Before the administration, replacement with each dedicated KRB solution was carried out in advance, and the autofluorescence of each well was measured with a fluorescence microplate reader. The time from the start of the replacement to immediately before the administration was approximately 28 minutes.\nAfter the completion of the administration, first, the fluorescent solution in each well was temporarily diluted using 200 μL of the dedicated KRB solution and then diluted using 300 μL of the usual KRB solution.\nThe influence of the presence of 50 mM L-glucose was also studied as a control in evaluating the influence of the presence of a large excess (50 mM) of D-glucose on increase in fluorescence intensity."}, "[3]": {"system": "mouse insulinoma cells (MIN6)", "experiment": "Increase in fluorescence intensity (uptake) after administration of fluorescent glucose derivative to MIN6 cells, influence of cytochalasin B (CB) or phloretin (PHT), fluorescence microplate reader", "format": "cell-based", "details": "for effect of PHT on increase in fluorescence intensity (uptake) caused by administration: CDG and CLG on the same dish"}}, "note": "Where “and” joins values, the source holds several entries; their conditions need not be identical. Equal entries are not always repeated.", "data": [{"smiles": "O=c1ccc2ccc(NC3C(O)OC(CO)[C@@H](O)[C@@H]3O)cc2o1", "note": "(stereo partly drawn) [CDG, 2-deoxy-2-(2-oxo-2H-chromen-7-yl)amino-D-glucose]", "values": [{"measurement": "uptake into cells of MIN6 spheroids, intracellular localization", "setting": "[1]; 100 μM CDG+100 μM 2-NBDLG+20 μM 2-TRLG mixed solution, culture day 17", "value": "not only taken into the cytoplasm but unexpectedly taken into the nucleus"}, {"measurement": "effect of 50 mM D-glucose on increase in fluorescence intensity caused by administration", "setting": "[2]", "value": "significantly suppressed"}, {"measurement": "effect of 50 mM L-glucose on increase in fluorescence intensity caused by administration", "setting": "[2]", "value": "not suppressed"}, {"measurement": "fluorescence intensity in the presence of PHT relative to the absence of PHT", "setting": "[3]; CDG 100 μM, 37° C. 5 minutes, PHT 150 μM, MIN6 culture day 13, average, two independent experiments", "value": "28.5% and 28.8%"}, {"measurement": "effect of PHT on increase in fluorescence intensity (uptake) caused by administration", "setting": "[3]; MIN6 culture day 15, 5 minutes", "value": "significantly inhibited"}]}, {"smiles": "O=c1ccc2ccc(NC3C(O)OC(CO)[C@H](O)[C@H]3O)cc2o1", "note": "(stereo partly drawn) [CLG, 2-deoxy-2-(2-oxo-2H-chromen-7-yl)amino-L-glucose]", "values": [{"measurement": "uptake into cells of MIN6 spheroids, intracellular localization", "setting": "[1]; 100 μM CLG+100 μM 2-NBDLG+20 μM 2-TRLG mixed solution, culture day 15", "value": "strongly taken not only into the cytoplasm but into the nucleus"}, {"measurement": "effect of 50 mM D-glucose on increase in fluorescence intensity caused by administration", "setting": "[2]", "value": "slightly inhibited"}, {"measurement": "effect of 50 mM L-glucose on increase in fluorescence intensity caused by administration", "setting": "[2]", "value": "not inhibited"}, {"measurement": "effect of PHT on increase in fluorescence intensity (uptake) caused by administration", "setting": "[3]; MIN6 culture day 15, 5 minutes", "value": "significantly inhibited"}, {"measurement": "increase in fluorescence intensity caused by administration, compared with CDG (D/L stereoselectivity)", "setting": "[3]; same dish, MIN6 culture day 15, 5 minutes", "value": "significantly smaller"}]}]}
